Source: patent US5442060A, “Carboxamide derivatives” (Mitsubishi Kasei Corporation, priority 1992, dated 1995)
Counter-ions that a name gives are not always drawn.

Each compound was assayed against T1, ACAT (Homo sapiens, UniProt P35610) (assay: ACAT inhibition: radiolabelled cholesterol oleate production from labelled oleic acid in HepG2 cells). Details: concentration required to inhibit 50% of ACAT (cholesterol oleate production vs control).
T1 construct: endogenous in cells; host or cells: HepG2
T1 sequence (P35610 1-550): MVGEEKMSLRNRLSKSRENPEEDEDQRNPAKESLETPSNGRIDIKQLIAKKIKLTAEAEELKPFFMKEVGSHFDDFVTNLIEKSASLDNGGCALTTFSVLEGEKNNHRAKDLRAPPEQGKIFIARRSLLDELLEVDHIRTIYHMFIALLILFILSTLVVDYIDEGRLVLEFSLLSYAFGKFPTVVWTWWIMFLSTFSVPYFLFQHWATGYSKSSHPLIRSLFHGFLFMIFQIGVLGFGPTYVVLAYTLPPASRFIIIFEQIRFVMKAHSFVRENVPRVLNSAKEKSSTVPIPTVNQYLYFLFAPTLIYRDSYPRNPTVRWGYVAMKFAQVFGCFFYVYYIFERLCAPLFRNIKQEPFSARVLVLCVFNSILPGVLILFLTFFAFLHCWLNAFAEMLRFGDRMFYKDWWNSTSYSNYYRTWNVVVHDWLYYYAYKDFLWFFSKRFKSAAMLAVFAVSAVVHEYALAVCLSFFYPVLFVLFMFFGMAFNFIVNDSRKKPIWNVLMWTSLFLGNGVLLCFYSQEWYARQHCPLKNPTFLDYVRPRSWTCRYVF
Type: cell-based
Method: ACAT inhibition of the compounds of the present invention were assayed by the following method. HepG2 cell coming from human hepatic cancer cell was used for assaying ACAT activity. Thus, the assay was effected by adding radioactivity labelled oleic acid-bovine serum albumin complex into an incubation solution of HepG2 cell and measuring the amount of radioactivity labelled cholesterol oleate produced from the radioactivity labelled oeleic acid within the cell. Therefore, the activity of the compound of this invention to inhibit ACAT was obtained by calculating how much percent lowered the productivity of cholesterol oleate in control group containing no test compound by adding the test compound in each concentration (μM) and then expressing IC50 value, namely concentration of a test compound required to inhibit 50% expression of enzyme.

Row | IC50 | Structure (SMILES)
1 | 10 nM | CCCCCC(CC(=O)Nc1c(C(C)C)cccc1C(C)C)c1cccc2c1OCO2 (centres unmarked) [Example 1, N-(2,6-diisopropylphenyl)-3-(2,3-methylenedioxyphenyl)octanamide]
2 | 3 nM | CCCCCC(CC(=O)Nc1c(C(C)C)cccc1C(C)C)c1cccc(OC)c1OC (centres unmarked) [Example 2, N-(2,6-Diisopropylphenyl)-3-(2,3-dimethoxyphenyl)octanamide]
3 | 18 nM | CCCCC(CC(=O)Nc1c(C(C)C)cccc1C(C)C)c1cccc(OC)c1OC (centres unmarked) [Example 3, N-(2,6-Diisopropylphenyl)-3-(2,3-dimethoxyphenyl) heptanamide]
4 | 6.5 nM | CCCCCCC(CC(=O)Nc1c(C(C)C)cccc1C(C)C)c1cccc(OC)c1OC (centres unmarked) [Example 4, N-(2,6-Diisopropylphenyl)-3-(2,3-dimethoxyphenyl) nonanamide]
5 | 10 nM | CCCCCC(CCC(=O)Nc1c(C(C)C)cccc1C(C)C)c1cccc2c1OCO2 (centres unmarked) [Example 8, N-(2,6-Diisopropylphenyl)-4-(2,3-methylenedioxyphenyl)nonanamide]
6 | 50 nM | CCCCCC(CCC(=O)Nc1c(C(C)C)cccc1C(C)C)c1cccc(OC)c1OC (centres unmarked) [Example 9, N-(2,6-Diisopropylphenyl)-4-(2,3-dimethoxyphenyl) nonanamide]
7 | 7.6 nM | CCCCCC(CC(=O)Nc1c(C(C)C)cccc1C(C)C)c1cc(C(C)=O)cc(OC)c1OC (centres unmarked) [Example 10, N-(2,6-Diisopropylphenyl)-3-(5-acetyl-2,3-dimethoxyphenyl) octanamide]
8 | 0.9 nM | CCCCCC(CC(=O)Nc1c(C(C)C)cccc1C(C)C)c1cc(N(C)C)cc(OC)c1OC (centres unmarked) [Example 17, N-(2,6-diisopropylphenyl)-3-(2,3-dimethoxy-5-dimethylaminophenyl) octanamide]
9 | 101 nM | CCCCC[C@H](CC(=O)Nc1c(C(C)C)ccc(N(C)C)c1C(C)C)c1cccc2c1OCO2 [Example 18, (R)-N-(2,6-diisopropyl-3-dimethylaminophenyl)-3-(2,3-methylenedioxyphenyl) octanamide hydrochloride]
10 | 37 nM | CCCCC[C@@H](CNC(=O)Nc1c(OC(C)C)ccc2c1CCCC2)c1cccc2c1OCO2 [Example 20, (R)-1-[2-(2,3-methylenedioxyphenyl)heptyl]-3-(2-isopropoxy-5,6,7,8-tetrahydronaphthalene-1-yl) urea]
11 | 154 nM | CCCCC[C@@H](CNC(=O)Nc1c(OC)ccc2c1CCCC2)c1cccc2c1OCO2 [Example 21, (R)-1-[2-(2,3-methylenedioxyphenyl)heptyl]-3-(2-methoxy-5,6,7,8-tetrahydronaphthalene-1-yl) urea]
12 | 139 nM | CCCCC[C@@H](CNC(=O)Nc1c(OCC)ccc2c1CCCC2)c1cccc2c1OCO2 [Example 22, (R)-1-[2-(2,3-methylenedioxyphenyl)heptyl]-3-(2-ethoxy-5,6,7,8-tetrahydronaphthalene-1-yl) urea]
13 | 195 nM | CCCCC[C@@H](CNC(=O)Nc1c(OCC)ccc2c1CCC2)c1cccc2c1OCO2 [Example 23, (R)-1-[2-(2,3-methylenedioxyphenyl)heptyl]-3-(5-ethoxyindane-4-yl) urea]
14 | 230 nM | CCCCC[C@@H](CNC(=O)Nc1cccc2c1OC(C)(C)C2)c1cccc2c1OCO2 [Example 24, (R)-1-[2-(2,3-methylenedioxyphenyl)heptyl]-3-(2,3-dihydro-2,2-dimethylbenzofuran-7-yl) urea]
15 | 57 nM | CCCCC[C@@H](CNC(=O)Nc1c(N(C)C)ncnc1N(C)C)c1cccc2c1OCO2 [Example 25, (R)-1-[2-(2,3-methylenedioxyphenyl)heptyl]-3-[4,6-bis (dimethylamino)pyrimidine-5-yl]urea]
16 | 175 nM | CCCCC[C@@H](CNC(=O)Nc1c(N2CCCC2)ncnc1N1CCCC1)c1cccc2c1OCO2 [Example 26, (R)-1-[2-(2,3-methylenedioxyphenyl)heptyl]-3-(4,6-dipyrrolidinopyrimidine-5-yl) urea]
17 | 314 nM | CCCCC[C@@H](CNC(=O)Nc1c(OC(C)C)ncnc1OC(C)C)c1cccc2c1OCO2 [Example 29, (R)-1-[2-(2,3-methylenedioxyphenyl)heptyl]-3-[4,6-di (1-methylethoxy)pyrimidine-5-yl]urea]
18 | 109 nM | CCCCC[C@@H](CNC(=O)Nc1c(OCC)ncnc1N(C)C)c1cccc2c1OCO2 [Example 30, (R)-1-[2-(2,3-methylenedioxyphenyl)heptyl]-3-(4-dimethylamino-6-ethoxypyrimidine-5-yl) urea]
19 | 28 nM | CCCCC[C@@H](CNC(=O)Nc1c(OC(C)C)c(C)nn1-c1ccccc1)c1cccc2c1OCO2 [Example 31, (R)-1-[2-(2,3-methylenedioxyphenyl)heptyl]-3-[3-methyl-4-(1-methylethoxy)-1-phenylpyrazole-5-yl]urea]
20 | 106 nM | CCCCC[C@@H](CNC(=O)Nc1c(OC(C)C)c(C)nn1C(C)(C)C)c1cccc2c1OCO2 [Example 34, (R)-1-[2-(2,3-methylenedioxyphenyl)heptyl]-3-[1-(1,1-dimethylethyl)-3-methyl-4-(1-methylethoxy)pyrazole-5-yl]urea]
